Results: patent publication US10457703B2, “Bile acid derivatives as FXR/TGR5 agonists and methods of use thereof” (ENANTA PHARMACEUTICALS, INC., priority 2015, dated 2019)

Molecular target: human FXR (NR1H4) (Homo sapiens (Human), UniProt Q96RI1)
Test: Human FXR (NR1H4) Assay (Gal4 promoter driven luciferase reporter, Indigo Bioscience kit);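 on Efficacy (%): 100% equals the efficacy of CDCA; efficacy normalized to CDCA set as 100%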
Format: cell-based
Conditions: for EC50: Human FXR (NR1H4) Assay, potency ranges; for Emax: read-out: Efficacy (%)
Outline: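 CHO reporter cells expressing human FXR with an FXR-responsive luciferase reporter, treated with compound doses at 0.2% DMSO. Incubation lasted 22 h at 37 °C before luciferase detection reagent was added. Luminescence was then read.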

Chain of human FXR (NR1H4) (Q96RI1 whole entry, the tested form may be a part): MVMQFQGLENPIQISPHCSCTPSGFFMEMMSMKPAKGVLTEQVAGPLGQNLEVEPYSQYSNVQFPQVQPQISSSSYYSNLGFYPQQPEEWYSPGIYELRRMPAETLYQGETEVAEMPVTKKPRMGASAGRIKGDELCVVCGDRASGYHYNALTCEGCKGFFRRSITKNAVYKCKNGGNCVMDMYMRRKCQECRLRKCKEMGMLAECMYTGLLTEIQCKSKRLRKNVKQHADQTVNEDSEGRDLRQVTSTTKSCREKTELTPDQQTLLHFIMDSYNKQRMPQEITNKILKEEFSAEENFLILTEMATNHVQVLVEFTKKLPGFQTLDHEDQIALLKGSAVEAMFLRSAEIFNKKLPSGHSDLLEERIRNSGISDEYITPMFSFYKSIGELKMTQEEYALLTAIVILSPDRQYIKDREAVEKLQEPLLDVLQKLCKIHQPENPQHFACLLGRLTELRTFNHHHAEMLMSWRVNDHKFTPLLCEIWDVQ

Row | Structure (SMILES) | EC50 [nM] | Emax [%]
1 | CC[C@H]1[C@@H](O)[C@@H]2[C@H](CC[C@]3(C)[C@@H]([C@H](C)CCOC(=O)NCc4ccc(O)cc4)CC[C@@H]23)[C@@]2(C)CC[C@@H](O)C[C@@H]12 [Example 158] | 100 to 1000 | 240
2 | CC[C@H]1[C@@H](O)[C@@H]2[C@H](CC[C@]3(C)[C@@H]([C@H](C)CCOC(=O)NS(=O)(=O)c4ccc(C(C)(C)C(=O)OC)cc4)CC[C@@H]23)[C@@]2(C)CC[C@@H](O)C[C@@H]12 [Example 55] | < 100 | 258
3 | CC[C@H]1[C@@H](O)[C@@H]2[C@H](CC[C@]3(C)[C@@H]([C@H](C)CCOC(=O)NCC(C)(C)C)CC[C@@H]23)[C@@]2(C)CC[C@@H](O)C[C@@H]12 [Example 190] | 100 to 1000 | 410
4 | CC[C@H]1[C@@H](O)[C@@H]2[C@H](CC[C@]3(C)[C@@H]([C@H](C)CCOC(=O)NS(=O)(=O)c4ccc(OC)c(F)c4)CC[C@@H]23)[C@@]2(C)CC[C@@H](O)C[C@@H]12 [Example 94] | < 100 | 268
5 | CC[C@H]1[C@@H](O)[C@@H]2[C@H](CC[C@]3(C)[C@@H]([C@H](C)CCOC(=O)NCCCC(=O)OC)CC[C@@H]23)[C@@]2(C)CC[C@@H](O)C[C@@H]12 [Example 187] | 100 to 1000 | 421
6 | CC[C@H]1[C@@H](O)[C@@H]2[C@H](CC[C@]3(C)[C@@H]([C@H](C)COC(=O)NCc4ccccc4)CC[C@@H]23)[C@@]2(C)CC[C@@H](O)C[C@@H]12 [Example 205] | 1000 to 10000 | 5
7 | CC[C@H]1[C@@H](O)[C@@H]2[C@H](CC[C@]3(C)[C@@H]([C@H](C)COC(=O)NS(=O)(=O)c4ccc(-c5ncco5)nc4)CC[C@@H]23)[C@@]2(C)CC[C@@H](O)C[C@@H]12 [Example 44-o] | 100 to 1000 | 292
8 | CC[C@H]1[C@@H](O)[C@@H]2[C@H](CC[C@]3(C)[C@@H]([C@H](C)CCOC(=O)NS(=O)(=O)c4ccc(OC)cc4)CC[C@@H]23)[C@@]2(C)CC[C@@H](O)C[C@@H]12 [Example 52] | < 100 | 226
9 | CC[C@H]1[C@@H](O)[C@@H]2[C@H](CC[C@]3(C)[C@@H]([C@H](C)COC(=O)NS(=O)(=O)N(C)C)CC[C@@H]23)[C@@]2(C)CC[C@@H](O)C[C@@H]12 [Example 7] | 1000 to 10000 | 168
10 | CC[C@H]1[C@@H](O)[C@@H]2[C@H](CC[C@]3(C)[C@@H]([C@H](C)CCOC(=O)NS(=O)(=O)c4ccccc4OC)CC[C@@H]23)[C@@]2(C)CC[C@@H](O)C[C@@H]12 [Example 84] | < 100 | 270
11 | CC[C@H]1[C@@H](O)[C@@H]2[C@H](CC[C@]3(C)[C@@H]([C@H](C)COC(=O)NS(=O)(=O)c4ccc(N5CCC5)cc4)CC[C@@H]23)[C@@]2(C)CC[C@@H](O)C[C@@H]12 [Example 17] | < 100 | 211
12 | CC[C@H]1[C@@H](O)[C@@H]2[C@H](CC[C@]3(C)[C@@H]([C@H](C)CCOC(=O)N4CCC(CC)(CO)CC4)CC[C@@H]23)[C@@]2(C)CC[C@@H](O)C[C@@H]12 [Example 217] | < 100 | 337
13 | CC[C@H]1[C@@H](O)[C@@H]2[C@H](CC[C@]3(C)[C@@H]([C@H](C)CCOC(=O)NS(=O)(=O)c4cccc(OC)c4)CC[C@@H]23)[C@@]2(C)CC[C@@H](O)C[C@@H]12 [Example 86] | 100 to 1000 | 288
14 | CC[C@H]1[C@@H](O)[C@@H]2[C@H](CC[C@]3(C)[C@@H]([C@H](C)CCCOC(=O)NS(=O)(=O)c4ccc(C(C)(C)C)cc4)CC[C@@H]23)[C@@]2(C)CC[C@@H](O)C[C@@H]12 [Example 111] | 100 to 1000 | 208
15 | CC[C@H]1[C@@H](O)[C@@H]2[C@H](CC[C@]3(C)[C@@H]([C@H](C)CCOC(=O)NC4CCC4)CC[C@@H]23)[C@@]2(C)CC[C@@H](O)C[C@@H]12 [Example 133] | < 100 | 283
16 | CC[C@H]1[C@@H](O)[C@@H]2[C@H](CC[C@]3(C)[C@@H]([C@H](C)CCOC(=O)N[C@H]4CCCC[C@@H]4O)CC[C@@H]23)[C@@]2(C)CC[C@@H](O)C[C@@H]12 [Example 168] | 100 to 1000 | 302
17 | CC[C@H]1[C@@H](O)[C@@H]2[C@H](CC[C@]3(C)[C@@H]([C@H](C)CCOC(=O)NS(=O)(=O)C4(C)CC4)CC[C@@H]23)[C@@]2(C)CC[C@@H](O)C[C@@H]12 [Example 49] | < 100 | 269
18 | CC[C@H]1[C@@H](O)[C@@H]2[C@H](CC[C@]3(C)[C@@H]([C@H](C)COC(=O)NS(=O)(=O)c4ccc(-c5ccc(OC(F)(F)F)cc5)s4)CC[C@@H]23)[C@@]2(C)CC[C@@H](O)C[C@@H]12 [Example 26] | 100 to 1000 | 206

Row | Structure (SMILES) | EC50 [nM] | Emax [%]
19 | CC[C@H]1[C@@H](O)[C@@H]2[C@H](CC[C@]3(C)[C@@H]([C@H](C)CCOC(=O)N4CCCC4c4cccc(Cl)c4)CC[C@@H]23)[C@@]2(C)CC[C@@H](O)C[C@@H]12 (stereo partly drawn) [Example 184] | 1000 to 10000 | 213
20 | CC[C@H]1[C@@H](O)[C@@H]2[C@H](CC[C@]3(C)[C@@H]([C@H](C)CCCOC(=O)N(C)OC)CC[C@@H]23)[C@@]2(C)CC[C@@H](O)C[C@@H]12 [Example 149] | 1000 to 10000 | 232
21 | CC[C@H]1[C@@H](O)[C@@H]2[C@H](CC[C@]3(C)[C@@H]([C@H](C)CCOC(=O)NS(=O)(=O)N4CCOCC4)CC[C@@H]23)[C@@]2(C)CC[C@@H](O)C[C@@H]12 [Example 59] | < 100 | 428
22 | CC[C@H]1[C@@H](O)[C@@H]2[C@H](CC[C@]3(C)[C@@H]([C@H](C)CCOC(=O)NS(=O)(=O)C4CCCC4)CC[C@@H]23)[C@@]2(C)CC[C@@H](O)C[C@@H]12 [Example 47] | < 100 | 321
23 | CC[C@H]1[C@@H](O)[C@@H]2[C@H](CC[C@]3(C)[C@@H]([C@H](C)CCOC(=O)N(C)C)CC[C@@H]23)[C@@]2(C)CC[C@@H](O)C[C@@H]12 [Example 129] | 100 to 1000 | 323
24 | CC[C@H]1[C@@H](O)[C@@H]2[C@H](CC[C@]3(C)[C@@H]([C@H](C)COC(=O)NS(=O)(=O)c4ccc(-c5ccc(C(C)(C)C)cc5)cc4)CC[C@@H]23)[C@@]2(C)CC[C@@H](O)C[C@@H]12 [Example 34] | 100 to 1000 | 186
25 | CC[C@H]1[C@@H](O)[C@@H]2[C@H](CC[C@]3(C)[C@@H]([C@H](C)CCOC(=O)NS(=O)(=O)c4nccs4)CC[C@@H]23)[C@@]2(C)CC[C@@H](O)C[C@@H]12 [Example 104-c] | 1000 to 10000 | 34
26 | CC[C@H]1[C@@H](O)[C@@H]2[C@H](CC[C@]3(C)[C@@H]([C@H](C)CCOC(=O)N4CCc5sccc5C4)CC[C@@H]23)[C@@]2(C)CC[C@@H](O)C[C@@H]12 [Example 173] | 100 to 1000 | 209
27 | CC[C@H]1[C@@H](O)[C@@H]2[C@H](CC[C@]3(C)[C@@H]([C@H](C)CCOC(=O)NS(=O)(=O)CCC(=O)OC)CC[C@@H]23)[C@@]2(C)CC[C@@H](O)C[C@@H]12 [Example 92] | 1000 to 10000 | 218
28 | CC[C@H]1[C@@H](O)[C@@H]2[C@H](CC[C@]3(C)[C@@H]([C@H](C)CCOC(=O)N4CCC[C@@H]4CO)CC[C@@H]23)[C@@]2(C)CC[C@@H](O)C[C@@H]12 [Example 209] | < 100 | 199
29 | CC[C@H]1[C@@H](O)[C@@H]2[C@H](CC[C@]3(C)[C@@H]([C@H](C)CCOC(=O)N[C@H](C(=O)OC)C(C)C)CC[C@@H]23)[C@@]2(C)CC[C@@H](O)C[C@@H]12 [Example 154] | 100 to 1000 | 138
30 | CC[C@H]1[C@@H](O)[C@@H]2[C@H](CC[C@]3(C)[C@@H]([C@H](C)CCOC(=O)NS(=O)(=O)c4ccccc4OC(F)(F)F)CC[C@@H]23)[C@@]2(C)CC[C@@H](O)C[C@@H]12 [Example 77] | 100 to 1000 | 383
31 | CC[C@H]1[C@@H](O)[C@@H]2[C@H](CC[C@]3(C)[C@@H]([C@H](C)CCOC(=O)N4CCC(CO)(CO)CC4)CC[C@@H]23)[C@@]2(C)CC[C@@H](O)C[C@@H]12 [Example 218] | < 100 | 356
32 | CC[C@H]1[C@@H](O)[C@@H]2[C@H](CC[C@]3(C)[C@@H]([C@H](C)CCOC(=O)N4C[C@@H](C)O[C@@H](C)C4)CC[C@@H]23)[C@@]2(C)CC[C@@H](O)C[C@@H]12 [Example 182] | 100 to 1000 | 419
33 | CC[C@H]1[C@@H](O)[C@@H]2[C@H](CC[C@]3(C)[C@@H]([C@H](C)CCOC(=O)NCCO)CC[C@@H]23)[C@@]2(C)CC[C@@H](O)C[C@@H]12 [Example 153] | 100 to 1000 | 230
34 | CC[C@H]1[C@@H](O)[C@@H]2[C@H](CC[C@]3(C)[C@@H]([C@H](C)CCOC(=O)NCCc4ccccn4)CC[C@@H]23)[C@@]2(C)CC[C@@H](O)C[C@@H]12 [Example 186] | 100 to 1000 | 373
35 | CC[C@H]1[C@@H](O)[C@@H]2[C@H](CC[C@]3(C)[C@@H]([C@H](C)CCOC(=O)N4CC(=O)N(Cc5ccccc5)S4(=O)=O)CC[C@@H]23)[C@@]2(C)CC[C@@H](O)C[C@@H]12 [Example 109] | 1000 to 10000 | 142
36 | CC[C@H]1[C@@H](O)[C@@H]2[C@H](CC[C@]3(C)[C@@H]([C@H](C)COC(=O)NS(=O)(=O)c4ccc(N5CCCCC5=O)cc4)CC[C@@H]23)[C@@]2(C)CC[C@@H](O)C[C@@H]12 [Example 18] | < 100 | 221
